# Tests used:
# [1] = species on record: Canis familiaris; assay: Effective dose required to induce constriction of dog saphenous vein segments; type: functional; conditions: Canis lupus familiaris, read-out: ED50 (the source's name)
# [2] = species on record: Sus scrofa; assay: Ability to induce constriction of pig basilary artery; type: functional; conditions: read-out: ED50 (the source's name)
# [3] = target: T1, 5-hydroxytryptamine receptor 1A (Homo sapiens, UniProt P08908); assay: Ability to bind to 5-hydroxytryptamine 1A receptor from cloned human expressed in Ha7 cells; type: cell-based
# T1 sequence (P08908 whole entry): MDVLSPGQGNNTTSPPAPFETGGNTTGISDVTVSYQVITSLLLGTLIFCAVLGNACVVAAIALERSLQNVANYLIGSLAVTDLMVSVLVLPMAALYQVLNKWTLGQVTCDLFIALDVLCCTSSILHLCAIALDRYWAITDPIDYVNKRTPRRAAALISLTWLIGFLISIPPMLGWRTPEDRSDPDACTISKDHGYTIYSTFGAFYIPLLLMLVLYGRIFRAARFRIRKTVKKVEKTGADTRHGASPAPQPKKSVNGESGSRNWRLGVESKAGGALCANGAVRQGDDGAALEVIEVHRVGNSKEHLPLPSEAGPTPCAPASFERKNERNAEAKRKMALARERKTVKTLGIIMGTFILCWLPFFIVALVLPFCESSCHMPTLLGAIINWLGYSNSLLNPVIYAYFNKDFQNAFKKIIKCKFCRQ
# [4] = target: T1, 5-hydroxytryptamine receptor 1A; assay: Ability to bind to 5-hydroxytryptamine 1A receptor subtype from cloned human expressed in Ha7 cells; type: cell-based
# [5] = species on record: Sus scrofa; assay: Ability to induce constriction of pig basilary artery.; type: functional; conditions: read-out: ED50 (the source's name)
SMILES,EC50 [1],IC50 [3],IC50 [4],other results
CNS(=O)(=O)Cc1ccc2[nH]cc(CCN(C)C)c2c1,160 nM,,,EC50 [2]: 558 nM
CC(C)/N=C(\NC#N)NCCCNCC1CCc2ccccc2O1 (stereo not given),115 nM,15.8 nM,,
c1ccc2c(c1)CCC(CNCCCNC1=NCCCN1)C2 (stereo not given),615 nM,126 nM,,
c1ccc2c(c1)CCC(CNCCCNc1nc3ccccc3[nH]1)O2 (stereo not given),> 1000 nM,> 100 nM,,
c1cnc(NCCCNCC2CCc3ccccc3O2)nc1 (stereo not given),> 100 nM,2 nM,,
COc1cccc2c1CCC(CNCCCNC1=NCCCN1)O2 (stereo not given),> 1000 nM,,> 1000 nM,
c1ccc(NCCCNCC2CCc3ccccc3O2)nc1 (stereo not given),380 nM,1.26 nM,,
c1ccc2c(c1)NCC(CNCCCNC1=NCCCN1)O2 (stereo not given),> 1000 nM,> 1000 nM,,
c1ccc2c(c1)CC(CNCCCNC1=NCCCN1)CO2 (stereo not given),> 1000 nM,> 1000 nM,,
CC1(CNCCCNC2=NCCCN2)CCc2ccccc2O1 (stereo not given),> 1000 nM,> 1000 nM,,
COc1ccc2c(c1)CCC(CNCCCNC1=NCCCN1)O2 (stereo not given),> 1000 nM,,> 1000 nM,
Clc1ccc(NCCCNCC2CCc3ccccc3O2)nn1 (stereo not given),> 100 nM,0.398 nM,,
c1ccc2c(c1)CCC(CNCCCNc1nccs1)O2 (stereo not given),570 nM,1.58 nM,,
O=C1CCCN=C(NCCCNCC2CCc3ccccc3O2)N1 (stereo not given),> 1000 nM,2 nM,,
c1ccc2c(c1)CC(CNCCCNC1=NCCCN1)O2 (stereo not given),> 1000 nM,50.1 nM,,
CN1c2ccccc2CCC1CNCCCNC1=NCCCN1 (stereo not given),> 1000 nM,> 1000 nM,,
c1ccc2c(c1)CCCC(CNCCCNC1=NCCCN1)O2 (stereo not given),> 1000 nM,> 1000 nM,,

# Now those with a lower EC50 [1], led by results:
EC50 [1],IC50 [3],IC50 [4],SMILES,other results
60 nM,31.6 nM,,c1cnc(NCCNCC2CCc3ccccc3O2)nc1 (stereo not given),
78.7 nM,5.01 nM,,c1ccc2c(c1)CCC(CNCCCNc1ccncn1)O2 (stereo not given),
11 nM,,7.94 nM,c1ccc2c(c1)CCC(CNCCCCNC1=NCCCN1)O2 (stereo not given),
15.5 nM,3.98 nM,,c1ccc2c(c1)CCC(CNCCCNc1cnccn1)O2 (stereo not given),
31.5 nM,12.6 nM,,c1ccc2c(c1)CCC(CNCCCNC1=NCCN1)O2 (stereo not given),
51.5 nM,50.1 nM,,c1ccc2c(c1)CC[C@@H](CNCCCNC1=NCCCN1)O2,
9.09 nM,5.01 nM,,c1ccc2c(c1)CC[C@H](CNCCCNC1=NCCCN1)O2,EC50 ([5]; Sus scrofa): 22.9 nM; EC50 [5]: 29.2 nM
2.09 nM,,5.01 nM,COc1cccc2c1OC(CNCCCNC1=NCCCN1)CC2 (stereo not given),
4.53 nM,,12.6 nM,c1ccc2c(c1)CCC(CNCCCNC1=NCCCN1)O2 (stereo not given),
49.4 nM,,15.8 nM,c1ccc2c(c1)CCC(CNCCNC1=NCCCN1)O2 (stereo not given),
15.2 nM,,5.01 nM,c1ccc2c(c1)CCC(CNCCCCCNC1=NCCCN1)O2 (stereo not given),
66.5 nM,20 nM,,c1ccc2c(c1)OCC(CNCCCNC1=NCCCN1)O2 (stereo not given),
1.93 nM,,3.98 nM,CCc1ccc2c(c1)OC(CNCCCNC1=NCCCN1)CC2 (stereo not given),
19.7 nM,,25.1 nM,Fc1ccc2c(c1)CCC(CNCCCNC1=NCCCN1)O2 (stereo not given),
4.8 nM,,7.94 nM,CC(C)/N=C(\N)NNCCCNCC1CCc2ccccc2O1 (stereo not given),
17 nM,6.31 nM,,c1ccc2c(c1)CCC(CNCCCNC1=NCCCC1)O2 (stereo not given),
17.8 nM,,12.6 nM,COc1ccc2c(c1)OC(CNCCCNC1=NCCCN1)CC2 (stereo not given),

# From ChEMBL document CHEMBL1128632, “The discovery of a series of new non-indole 5HT1D agonists” (Bioorg Med Chem Lett, 1995)
